Experimental data from publication PMC6297231 (Nature Communications, 2018).

Experiments:
Assay in all cases: cells
A101D = conditions: Homo sapiens, 6 h, read-out: AZD5991 6h EC50
Protocol: (§1) Cells were plated at 3000 cells/well in 384-well white plates in corresponding cell growth media. […] Caspase-3/7 activation was subsequently determined using a Caspase-Glo 3/7 Reagent (Promega) and viability was assayed using the CellTiter-Glo Reagent (Promega) as described in manufacturer’s instructions. Dose–response curves for caspase-3/7 activation and viability were plotted and analyzed (including EC50 and GI50 determination) using GraphPad Prism. Percentage of caspase activation was calculated against the maximum caspase activation value (100%) obtained with a proprietary cell kill control.

A2058 = conditions: Homo sapiens, A2058, 6 h, read-out: AZD5991 6h EC50
Protocol: as §1

DMS53 = conditions: Homo sapiens, DMS-53, 6 h, read-out: AZD5991 6h EC50
Protocol: as §1

DMS79 = conditions: Homo sapiens, DMS-79, 6 h, read-out: AZD5991 6h EC50
Protocol: as §1

EJM = conditions: Homo sapiens, 6 h, read-out: AZD5991 6h EC50
Protocol: as §1

EOL1 = conditions: Homo sapiens, EOL1, 6 h, read-out: AZD5991 6h EC50
Protocol: as §1

H1048 = conditions: Homo sapiens, NCI-H1048, 6 h, read-out: AZD5991 6h EC50
Protocol: as §1

H1703 = conditions: Homo sapiens, NCI-H1703, 6 h, read-out: AZD5991 6h EC50
Protocol: as §1

H1734 = conditions: Homo sapiens, NCI-H1734, 6 h, read-out: AZD5991 6h EC50
Protocol: as §1

H2126 = conditions: Homo sapiens, NCI-H2126, 6 h, read-out: AZD5991 6h EC50
Protocol: as §1

H322 = conditions: NCI-H322, 6 h, read-out: AZD5991 6h EC50
Protocol: as §1

H460 = conditions: Homo sapiens, NCI-H460, 6 h, read-out: AZD5991 6h EC50
Protocol: as §1

H526 = conditions: Homo sapiens, NCI-H526, 6 h, read-out: AZD5991 6h EC50
Protocol: as §1

HBL1 = conditions: HBL1, 6 h, read-out: AZD5991 6h EC50
Protocol: as §1

HCC1187 = conditions: Homo sapiens, HCC1187, 6 h, read-out: AZD5991 6h EC50
Protocol: as §1

HL60 = conditions: Homo sapiens, HL-60, 6 h, read-out: AZD5991 6h EC50
Protocol: as §1

HMCB = conditions: Homo sapiens, 6 h, read-out: AZD5991 6h EC50
Protocol: as §1

JEKO1 = conditions: Homo sapiens, JeKo-1, 6 h, read-out: AZD5991 6h EC50
Protocol: as §1

JVM2 = conditions: Homo sapiens, JVM-2, 6 h, read-out: AZD5991 6h EC50
Protocol: as §1

KMS34 = conditions: KMS-34, 6 h, read-out: AZD5991 6h EC50
Protocol: as §1

Karpas422 = conditions: Homo sapiens, KARPAS-422, 6 h, read-out: AZD5991 6h EC50
Protocol: as §1

L363 = conditions: Homo sapiens, L-363, 6 h, read-out: AZD5991 6h EC50
Protocol: as §1

MAVER1 = conditions: Homo sapiens, Maver1, 6 h, read-out: AZD5991 6h EC50
Protocol: as §1

MCF7 = conditions: Homo sapiens, MCF7, 6 h, read-out: AZD5991 6h EC50
Protocol: as §1

MDAMB231 = conditions: Homo sapiens, MDA-MB-231, 6 h, read-out: AZD5991 6h EC50
Protocol: as §1

MDAMB468 = conditions: Homo sapiens, MDA-MB-468, 6 h, read-out: AZD5991 6h EC50
Protocol: as §1

MWCL1 = conditions: 6 h, read-out: AZD5991 6h EC50
Protocol: as §1

OCILY19 = conditions: Homo sapiens, OCI-LY19, 6 h, read-out: AZD5991 6h EC50
Protocol: as §1

OVCAR3 = conditions: Homo sapiens, OVCAR-3, 6 h, read-out: AZD5991 6h EC50
Protocol: as §1

Ramos = conditions: Homo sapiens, 6 h, read-out: AZD5991 6h EC50
Protocol: as §1

SKBR3 = conditions: Homo sapiens, SK-BR-3, 6 h, read-out: AZD5991 6h EC50
Protocol: as §1

SKOV3 = conditions: Homo sapiens, SK-OV-3, 6 h, read-out: AZD5991 6h EC50
Protocol: as §1

Sudhl10 = conditions: Homo sapiens, SU-DHL10, 6 h, read-out: AZD5991 6h EC50
Protocol: as §1

Sudhl8 = conditions: Homo sapiens, SU-DHL-8, 6 h, read-out: AZD5991 6h EC50
Protocol: as §1

T47D = conditions: Homo sapiens, 6 h, read-out: AZD5991 6h EC50
Protocol: as §1

U266B1 = conditions: 6 h, read-out: AZD5991 6h EC50
Protocol: as §1

Cc1c2c(nn1C)CSCc1cc(n(C)n1)CSc1cc(c3ccccc3c1)OCCCc1c(C(=O)O)n(C)c3c-2c(Cl)ccc13 (atropisomer, axis not shown; (Ra)) [(Ra)-7]
EC50 (A101D): 1520 nM | EC50 (A2058): > 30000 nM | EC50 (DMS53): > 30000 nM | EC50 (DMS79): > 30000 nM | EC50 (EJM): 169 nM | EC50 (EOL1): 13 nM | EC50 (H1048): > 30000 nM | EC50 (H1703): 801 nM | EC50 (H1734): 20100 nM | EC50 (H2126): 157 nM | EC50 (H322): > 30000 nM | EC50 (H460): > 30000 nM | EC50 (H526): > 30000 nM | EC50 (HBL1): 25800 nM | EC50 (HCC1187): 235 nM | EC50 (HL60): 656 nM | EC50 (HMCB): 25900 nM | EC50 (JEKO1): 512 nM | EC50 (JVM2): 1030 nM | EC50 (KMS34): 240 nM | EC50 (Karpas422): 530 nM | EC50 (L363): 90 nM | EC50 (MAVER1): 27800 nM | EC50 (MCF7): 313 nM | EC50 (MDAMB231): > 30000 nM | EC50 (MDAMB468): > 30000 nM | EC50 (MWCL1): 27700 nM | EC50 (OCILY19): 188 nM | EC50 (OVCAR3): > 30000 nM | EC50 (Ramos): 28 nM | EC50 (SKBR3): > 30000 nM | EC50 (SKOV3): > 30000 nM | EC50 (Sudhl10): 10 nM | EC50 (Sudhl8): 595 nM | EC50 (T47D): > 30000 nM | EC50 (U266B1): > 30000 nM
